Measurements from the NIST ThermoML archive (doi:10.1016/j.fluid.2010.02.037).

Conditions: Gas, Oscillating disk viscometry

CCN(CC)CC [triethylamine]
Conditions	viscosity [mPa·s]
296.98 K, Amount density=4.2 mol/m3	0.006418
297.59 K, Amount density=6.31 mol/m3	0.006412
297.87 K, Amount density=8.75 mol/m3	0.006427
297.97 K, Amount density=4.2 mol/m3	0.006439
297.98 K, Amount density=4.99 mol/m3	0.00644
298.33 K, Amount density=4.99 mol/m3	0.006437
299.24 K, Amount density=7.52 mol/m3	0.006446
299.36 K, Amount density=6.31 mol/m3	0.006449
299.67 K, Amount density=2.2 mol/m3	0.00649
299.85 K, Amount density=2.2 mol/m3	0.006485
300.02 K, Amount density=3.13 mol/m3	0.006488
300.11 K, Amount density=8.75 mol/m3	0.00646
303.12 K, Amount density=3.13 mol/m3	0.006548
310.02 K, Amount density=4.2 mol/m3	0.006668
310.29 K, Amount density=6.31 mol/m3	0.006654
311.78 K, Amount density=8.75 mol/m3	0.006667
313.96 K, Amount density=2.2 mol/m3	0.006764
314.61 K, Amount density=4.99 mol/m3	0.00675
316.33 K, Amount density=3.13 mol/m3	0.006815
324.05 K, Amount density=8.75 mol/m3	0.006913
324.26 K, Amount density=3.13 mol/m3	0.006981
324.9 K, Amount density=6.31 mol/m3	0.006948
324.95 K, Amount density=4.2 mol/m3	0.006971
325.84 K, Amount density=4.99 mol/m3	0.00698
326.04 K, Amount density=7.52 mol/m3	0.006979
326.63 K, Amount density=2.2 mol/m3	0.007024
337.84 K, Amount density=6.31 mol/m3	0.007205
338.12 K, Amount density=7.52 mol/m3	0.007218
338.25 K, Amount density=4.99 mol/m3	0.007233
338.31 K, Amount density=3.13 mol/m3	0.007259
338.63 K, Amount density=4.2 mol/m3	0.007245
338.92 K, Amount density=8.75 mol/m3	0.007217
339.05 K, Amount density=2.2 mol/m3	0.007275
352.32 K, Amount density=7.52 mol/m3	0.007513
352.34 K, Amount density=8.75 mol/m3	0.007487
352.41 K, Amount density=6.31 mol/m3	0.007492
352.46 K, Amount density=4.99 mol/m3	0.007529
352.5 K, Amount density=2.2 mol/m3	0.007551
352.91 K, Amount density=3.13 mol/m3	0.007557
353.3 K, Amount density=4.2 mol/m3	0.007551
365.86 K, Amount density=4.2 mol/m3	0.007803
366.42 K, Amount density=8.75 mol/m3	0.007782
366.49 K, Amount density=3.13 mol/m3	0.007839
366.6 K, Amount density=2.2 mol/m3	0.007842
366.72 K, Amount density=7.52 mol/m3	0.007801
366.77 K, Amount density=6.31 mol/m3	0.007784
367.25 K, Amount density=4.99 mol/m3	0.007831
380.54 K, Amount density=4.99 mol/m3	0.008109
380.67 K, Amount density=3.13 mol/m3	0.008129
381.06 K, Amount density=8.75 mol/m3	0.008076
381.14 K, Amount density=2.2 mol/m3	0.008137
381.83 K, Amount density=6.31 mol/m3	0.008106
385.41 K, Amount density=4.2 mol/m3	0.008217
385.75 K, Amount density=7.52 mol/m3	0.008206
394.25 K, Amount density=4.2 mol/m3	0.008388
394.49 K, Amount density=6.31 mol/m3	0.00837
394.51 K, Amount density=4.99 mol/m3	0.008386
394.56 K, Amount density=2.2 mol/m3	0.008413
394.86 K, Amount density=7.52 mol/m3	0.008384
394.95 K, Amount density=3.13 mol/m3	0.008423
395.11 K, Amount density=8.75 mol/m3	0.008369
408.35 K, Amount density=8.75 mol/m3	0.00864
408.97 K, Amount density=6.31 mol/m3	0.008662
409.2 K, Amount density=2.2 mol/m3	0.008718
409.32 K, Amount density=4.99 mol/m3	0.008707
409.67 K, Amount density=7.52 mol/m3	0.00869
409.73 K, Amount density=4.2 mol/m3	0.008711
412.99 K, Amount density=3.13 mol/m3	0.008804
422.67 K, Amount density=8.75 mol/m3	0.008939
422.79 K, Amount density=2.2 mol/m3	0.008996
423.03 K, Amount density=7.52 mol/m3	0.008963
423.25 K, Amount density=4.99 mol/m3	0.008991
423.41 K, Amount density=3.13 mol/m3	0.009012
423.92 K, Amount density=6.31 mol/m3	0.008966
423.93 K, Amount density=4.2 mol/m3	0.008988
436.97 K, Amount density=4.2 mol/m3	0.009275
437.11 K, Amount density=6.31 mol/m3	0.009249
437.42 K, Amount density=2.2 mol/m3	0.009296
437.51 K, Amount density=3.13 mol/m3	0.009315
437.62 K, Amount density=4.99 mol/m3	0.009286
437.76 K, Amount density=8.75 mol/m3	0.009255
437.87 K, Amount density=7.52 mol/m3	0.009269
451.28 K, Amount density=4.99 mol/m3	0.009572
451.45 K, Amount density=8.75 mol/m3	0.009534
451.66 K, Amount density=6.31 mol/m3	0.009554
451.72 K, Amount density=2.2 mol/m3	0.009594
451.74 K, Amount density=3.13 mol/m3	0.009599
451.76 K, Amount density=4.2 mol/m3	0.009586
451.93 K, Amount density=7.52 mol/m3	0.009558
465.92 K, Amount density=6.31 mol/m3	0.009846
466.45 K, Amount density=4.99 mol/m3	0.009879
466.58 K, Amount density=2.2 mol/m3	0.009907
466.63 K, Amount density=8.75 mol/m3	0.009851
466.71 K, Amount density=4.2 mol/m3	0.009893
469.98 K, Amount density=3.13 mol/m3	0.009985
471.39 K, Amount density=7.52 mol/m3	0.009972
480.12 K, Amount density=8.75 mol/m3	0.01013
480.36 K, Amount density=2.2 mol/m3	0.01019
480.43 K, Amount density=4.99 mol/m3	0.01017
480.7 K, Amount density=7.52 mol/m3	0.01015
480.86 K, Amount density=3.13 mol/m3	0.0102
481.09 K, Amount density=6.31 mol/m3	0.01015
481.32 K, Amount density=4.2 mol/m3	0.01019
495.17 K, Amount density=6.31 mol/m3	0.01045
495.29 K, Amount density=4.99 mol/m3	0.01047
495.31 K, Amount density=4.2 mol/m3	0.01049
495.84 K, Amount density=7.52 mol/m3	0.01046
496.21 K, Amount density=8.75 mol/m3	0.01046
498.38 K, Amount density=3.13 mol/m3	0.01057
498.45 K, Amount density=2.2 mol/m3	0.01056
